Columns and labels:
[1] = system: MALME-3M cells; test: Cell proliferation (resazurin) assay; type: cell-based, human; conditions: 48 hr
Experimental: For hGH treatment, 16 hours after seeding (or 24 hours post-transfection), the cells were serum-starved for 2 hours in serum-free growth media, and hGH (phosphate buffered saline was used as control where applicable) was added at the noted concentrations (0-, 5-, 50-, and 150 ng/ml). Cells were subsequently incubated for 24 hours before evaluating RNA levels. Recombinant hGH was purchased from Antibodies Online (#ABIN2017921, Atlanta, Ga.).
On the other hand, a pronounced drop in proliferation levels in all the cell lines was seen when GHR was knocked down. […] Cell proliferation was estimated using resazurin-based metabolic assay. […] Averages of at least four independent experiments performed in quadruplicate were taken [*, p<0.05, Students t-test]. The results may indicate that human melanoma cells utilize GH-GHR interaction to drive aggressive tumor phenotypes.
To determine this, and referring now to FIGS. 35A-35D, changes in amounts of calcein retained inside cells following treatment with calcein-AM ester was analyzed by the fluorescence readout from intracellular calcein. Increased abundance of transporter pumps is reflected by decreased levels of intracellular calcein. […] Assays were performed 48 hr. post-transfection with either scr-siRNA or GHR-siRNA. […] SK-MEL-28 (FIG. 35C) and MALME-3M (FIG. 35D) cells were exposed to DMSO (vehicle), or 10 um cisplatin (Cis), or 5 nM paclitaxel (Pac) for 24 hr. Treatments were done 48 hr. post-transfection with either scr-siRNA (scr) or GHR-siRNA (GHR). Mean of three independent experiments performed in triplicate was taken. [*, p<0.05, Students t test, n=3]

[2] = system: SK-MEL-5 cells; test: Cell proliferation (resazurin) assay; type: cell-based, human; conditions: 48 hr

Substance: hGH: Recombinant human growth hormone, Antibodies Online #ABIN2017921
- Cell proliferation induced by hGH-excess (increase) ([1]; 50 ng/ml hGH): 248%
- increase in proliferation ([1]; 150 ng/mL hGH): more than 300%
- Cell proliferation induced by hGH-excess (increase) ([2]; 50 ng/ml hGH): 10%
- increase in proliferation ([2]; 150 ng/mL hGH): 22%
